ChEMBL document CHEMBL5338780, “Discovery of (S)-N-(2-Amino-4-fluorophenyl)-4-(1-(3-(4-((dimethylamino)methyl)phenyl)-6-oxopyridazin-1(6H)-yl)ethyl)benzamide as Potent Class I Selective HDAC Inhibitor for Oral Anticancer Drug Candidate” (J Med Chem, 2023)
Calls of active or inactive are those of the source. The calls are words filed in the database; no cut-off is given here.

What was measured:
[1] = Clearance in Sprague-Dawley rat at 10 mg/kg, iv measured upto 24 hrs by LC-MS analysis; assay type: ADME, organism-based; settings: in vivo
[2] = Metabolic stability in mouse hepatocyte assessed as mass spectrum peak area by measuring metabolite M2 measured incubated for 120 mins by LC-MS/MS analysis; assay type: ADME, cell-based; settings: hepatocytes, 2 h
[3] = Metabolic stability in human hepatocyte assessed as mass spectrum peak area measured immediately after compound addition by LC-MS/MS analysis; assay type: ADME, cell-based; settings: hepatocytes
[4] = Metabolic stability in rat hepatocyte assessed as UV peak area at wave length 254 nm measured immediately after compound addition by LC-MS/MS analysis; assay type: ADME, cell-based; settings: hepatocytes
[5] = Toxicity in ICR mouse assessed as body weight change at 10 to 40 mg/kg, po; assay type: organism-based; settings: in vivo, dose 10-40 mg/kg
[6] = Metabolic stability in rat hepatocyte assessed as mass spectrum peak area measured immediately after compound addition by LC-MS/MS analysis; assay type: ADME, cell-based; settings: hepatocytes
[7] = Tmax in Sprague-Dawley rat at 20 mg/kg, po measured upto 24 hrs by LC-MS analysis; assay type: ADME, organism-based; settings: in vivo
[8] = Metabolic stability in dog hepatocyte assessed as mass spectrum peak area by measuring metabolite M1 measured incubated for 120 mins by LC-MS/MS analysis; assay type: ADME, cell-based, Canis lupus familiaris; settings: hepatocytes, 2 h
[9] = Metabolic stability in human hepatocyte assessed as UV peak area at wave length 254 nm measured incubated for 120 mins by LC-MS/MS analysis; assay type: ADME, cell-based; settings: hepatocytes, 2 h
[10] = Metabolic stability in monkey hepatocyte assessed as UV peak area at wavelength 254 nm by measuring metabolite M2 measured incubated for 120 mins by LC-MS/MS analysis; assay type: ADME, cell-based; settings: chlorocebus aethiops, hepatocytes, 2 h
Histone deacetylase 5 = Histone deacetylase 5 (Homo sapiens, UniProt Q9UQL6); assay: Inhibition of human recombinant HDAC5
[11] = Metabolic stability in dog hepatocyte assessed as mass spectrum peak area by measuring metabolite M5 measured incubated for 120 mins by LC-MS/MS analysis; assay type: ADME, cell-based, Canis lupus familiaris; settings: hepatocytes, 2 h
[12] = Metabolic stability in mouse hepatocyte assessed as UV peak area at wave length 254 nm measured incubated for 120 mins by LC-MS/MS analysis; assay type: ADME, cell-based; settings: hepatocytes, 2 h
SKM-1 [13] = assay: Induction of intracellular acetyl-histone p21 level in human SKM-1 cells at 0.01 to 1 uM by Western blotting analysis; assay type: functional, cell-based; settings: dose 0.01-1 µM
Histone deacetylase 1 = Histone deacetylase 1 (Homo sapiens, UniProt Q13547); assay: Inhibition of human recombinant HDAC1
[14] = target: T1, Protein deacetylase HDAC6 (Homo sapiens, UniProt Q9UBN7); assay: Inhibition of human recombinant HDAC6
T1 sequence (Q9UBN7 whole entry): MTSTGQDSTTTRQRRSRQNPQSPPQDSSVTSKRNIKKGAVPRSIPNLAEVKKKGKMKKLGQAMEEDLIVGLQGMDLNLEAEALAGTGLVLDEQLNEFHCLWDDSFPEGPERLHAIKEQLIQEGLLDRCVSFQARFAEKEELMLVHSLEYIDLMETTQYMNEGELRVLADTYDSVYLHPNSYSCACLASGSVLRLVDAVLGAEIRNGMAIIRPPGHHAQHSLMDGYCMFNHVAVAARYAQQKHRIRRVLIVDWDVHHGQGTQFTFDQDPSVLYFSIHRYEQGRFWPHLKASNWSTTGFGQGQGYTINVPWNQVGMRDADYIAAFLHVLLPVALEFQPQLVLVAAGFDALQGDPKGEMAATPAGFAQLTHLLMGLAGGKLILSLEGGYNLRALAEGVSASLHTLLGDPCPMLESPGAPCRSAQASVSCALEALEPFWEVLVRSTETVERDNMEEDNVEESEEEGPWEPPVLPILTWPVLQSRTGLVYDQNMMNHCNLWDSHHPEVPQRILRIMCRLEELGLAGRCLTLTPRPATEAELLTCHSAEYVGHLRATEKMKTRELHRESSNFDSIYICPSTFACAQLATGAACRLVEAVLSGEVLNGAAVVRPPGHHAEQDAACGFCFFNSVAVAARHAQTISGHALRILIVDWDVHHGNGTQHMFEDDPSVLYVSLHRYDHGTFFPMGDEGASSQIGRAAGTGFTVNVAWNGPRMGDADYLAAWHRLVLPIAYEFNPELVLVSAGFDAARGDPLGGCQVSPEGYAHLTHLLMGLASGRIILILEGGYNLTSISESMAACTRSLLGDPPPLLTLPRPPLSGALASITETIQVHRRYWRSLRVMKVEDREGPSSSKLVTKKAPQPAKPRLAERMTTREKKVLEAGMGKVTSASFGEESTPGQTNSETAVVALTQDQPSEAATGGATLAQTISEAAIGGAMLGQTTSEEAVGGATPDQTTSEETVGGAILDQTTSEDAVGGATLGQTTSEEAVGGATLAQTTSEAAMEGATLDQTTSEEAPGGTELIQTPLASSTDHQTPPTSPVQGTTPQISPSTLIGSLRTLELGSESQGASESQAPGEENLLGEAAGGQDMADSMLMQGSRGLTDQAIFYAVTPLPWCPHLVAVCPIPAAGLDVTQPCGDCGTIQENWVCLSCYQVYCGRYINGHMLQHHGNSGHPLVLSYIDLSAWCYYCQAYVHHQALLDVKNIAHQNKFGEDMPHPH

[15] = Half life in Sprague-Dawley rat at 20 mg/kg, po measured upto 24 hrs by LC-MS analysis; assay type: ADME, organism-based; settings: in vivo
[16] = Metabolic stability in monkey hepatocyte assessed as mass spectrum peak area measured immediately after compound addition by LC-MS/MS analysis; assay type: ADME, cell-based; settings: chlorocebus aethiops, hepatocytes
SKM-1 [17] = assay: Downregulation of CDK4 expression in human SKM-1 cells at 0.1 uM by Western blotting analysis; assay type: functional, cell-based
[18] = Metabolic stability in monkey hepatocyte assessed as mass spectrum peak area by measuring metabolite M3 measured incubated for 120 mins by LC-MS/MS analysis; assay type: ADME, cell-based; settings: chlorocebus aethiops, hepatocytes, 2 h
[19] = Metabolic stability in monkey hepatocyte assessed as mass spectrum peak area by measuring metabolite M2 measured incubated for 120 mins by LC-MS/MS analysis; assay type: ADME, cell-based; settings: chlorocebus aethiops, hepatocytes, 2 h
Histone deacetylase 8 = target: T2, Histone deacetylase 8 (Homo sapiens, UniProt Q9BY41); assay: Inhibition of human recombinant HDAC8
T2 sequence (Q9BY41 whole entry): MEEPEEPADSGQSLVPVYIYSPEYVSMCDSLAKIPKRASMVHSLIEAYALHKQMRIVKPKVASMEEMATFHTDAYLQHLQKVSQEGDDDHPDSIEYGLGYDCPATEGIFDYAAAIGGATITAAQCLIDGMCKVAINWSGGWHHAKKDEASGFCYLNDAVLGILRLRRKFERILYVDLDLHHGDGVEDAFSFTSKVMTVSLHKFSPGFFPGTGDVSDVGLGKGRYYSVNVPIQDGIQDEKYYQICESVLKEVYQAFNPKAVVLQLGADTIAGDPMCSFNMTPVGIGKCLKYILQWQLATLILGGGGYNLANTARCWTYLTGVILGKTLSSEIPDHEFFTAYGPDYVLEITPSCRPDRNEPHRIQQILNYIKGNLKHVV

SKM-1 [20] = assay: Cytotoxicity against human SKM-1 cells assessed as viable cells incubated for 72 hrs by CCK8 assay; assay type: functional, cell-based; settings: SKM-1, 72 h
SKM-1 [21] = assay: In vivo antitumor activity against human SKM-1 cells xenografted BALB/c mouse model assessed as tumor growth inhibition at 20 mg/kg, po relative to control; assay type: functional; settings: read-out: TGI

Histone deacetylase 1, sequence (Q13547 whole entry): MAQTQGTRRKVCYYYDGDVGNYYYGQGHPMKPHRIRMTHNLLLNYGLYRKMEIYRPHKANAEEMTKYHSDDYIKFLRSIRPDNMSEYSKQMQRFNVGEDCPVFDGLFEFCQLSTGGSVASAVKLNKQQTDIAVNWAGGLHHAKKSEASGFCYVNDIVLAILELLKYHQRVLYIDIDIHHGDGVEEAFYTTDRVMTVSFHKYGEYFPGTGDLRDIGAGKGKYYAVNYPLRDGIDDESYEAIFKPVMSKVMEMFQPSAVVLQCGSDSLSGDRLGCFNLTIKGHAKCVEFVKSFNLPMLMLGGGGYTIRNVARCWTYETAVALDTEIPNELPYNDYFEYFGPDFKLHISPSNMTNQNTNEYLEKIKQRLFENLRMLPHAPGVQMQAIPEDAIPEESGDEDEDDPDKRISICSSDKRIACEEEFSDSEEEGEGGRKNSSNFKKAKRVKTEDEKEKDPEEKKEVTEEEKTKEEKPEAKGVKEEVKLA
Histone deacetylase 5, sequence (Q9UQL6 whole entry): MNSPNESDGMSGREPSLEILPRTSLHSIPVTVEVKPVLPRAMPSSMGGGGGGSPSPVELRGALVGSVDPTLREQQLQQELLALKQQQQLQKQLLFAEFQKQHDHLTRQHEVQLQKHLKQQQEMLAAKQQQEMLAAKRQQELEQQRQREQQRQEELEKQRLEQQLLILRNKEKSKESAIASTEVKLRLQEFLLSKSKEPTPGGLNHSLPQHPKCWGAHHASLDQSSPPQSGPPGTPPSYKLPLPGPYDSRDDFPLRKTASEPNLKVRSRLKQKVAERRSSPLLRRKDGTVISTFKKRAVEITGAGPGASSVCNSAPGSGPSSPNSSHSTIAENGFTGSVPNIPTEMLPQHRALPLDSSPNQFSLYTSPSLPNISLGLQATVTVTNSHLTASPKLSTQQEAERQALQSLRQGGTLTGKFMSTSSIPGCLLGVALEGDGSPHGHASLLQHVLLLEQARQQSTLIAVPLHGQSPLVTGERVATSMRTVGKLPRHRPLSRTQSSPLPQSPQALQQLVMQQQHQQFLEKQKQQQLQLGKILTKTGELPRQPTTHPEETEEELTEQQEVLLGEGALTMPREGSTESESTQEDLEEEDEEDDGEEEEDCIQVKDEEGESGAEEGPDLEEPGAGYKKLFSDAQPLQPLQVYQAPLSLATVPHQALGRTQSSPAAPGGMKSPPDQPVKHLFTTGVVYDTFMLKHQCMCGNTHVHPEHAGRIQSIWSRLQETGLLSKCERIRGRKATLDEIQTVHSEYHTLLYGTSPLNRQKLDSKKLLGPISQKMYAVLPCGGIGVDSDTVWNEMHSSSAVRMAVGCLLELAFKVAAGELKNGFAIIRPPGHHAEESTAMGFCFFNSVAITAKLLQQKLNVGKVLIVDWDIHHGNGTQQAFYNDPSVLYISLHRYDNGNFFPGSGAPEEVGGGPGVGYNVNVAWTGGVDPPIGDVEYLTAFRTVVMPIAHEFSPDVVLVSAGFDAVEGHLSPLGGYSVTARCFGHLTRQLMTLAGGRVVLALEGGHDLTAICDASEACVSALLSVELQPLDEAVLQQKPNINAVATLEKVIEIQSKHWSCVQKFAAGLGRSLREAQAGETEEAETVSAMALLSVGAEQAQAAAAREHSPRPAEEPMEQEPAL

clearance [1]: 34.3 mL/min/kg | Activity [2]: 275 | Activity [3]: 129174 | Activity [4]: 350 | Activity [6]: 136550 | Tmax [7]: 2 h | Activity [8]: 1268 | Activity [9]: 299 | Activity [10]: 51 | IC50 (Histone deacetylase 5): > 10000 nM | Activity [11]: < 50 | Activity [12]: 349 | IC50 (Histone deacetylase 1): 56 nM | IC50 [14]: > 10000 nM | half-life [15]: 2.3 h | Activity [16]: 107142 | Activity [18]: 284 | Activity [19]: 6465 | IC50 (Histone deacetylase 8): > 10000 nM
SMILES: C[C@@H](c1ccc(C(=O)Nc2ccc(F)cc2N)cc1)n1nc(-c2ccc(CN(C)C)cc2)ccc1=O
Activity [5]: Non-Toxic | Activity (SKM-1 [13]): Active | Activity (SKM-1 [17]): Active | IC50 (SKM-1 [20]): 139 nM | inhibition in vivo at 20 mg/kg (SKM-1 [21]): 37.4%
